Assay results reported in ChEMBL document CHEMBL1129894, “Dihydroxypyrrolidines C-linked to galactose. Total synthesis of a specific inhibitor of -mannosidases” (Bioorg Med Chem Lett, 1997).
Active and inactive are the calls of the source. No cut-off for these calls is given here.

Legend:
Aspergillus niger = assay: Inhibition of the enzyme beta-D-xylosidase from Aspergillus niger was determined at 1 mM concentration of the compound; No inhibition
[1] = Inhibition of the enzyme Beta-mannosidase from Helix pomatia was determined at 1 mM concentration of the compound; No inhibition
[2] = system: Caldicellulosiruptor saccharolyticus; assay: Inhibition of the enzyme beta-glucosidase from Caldocellum saccharolyticum was determined at 1 mM concentration of the compound; No inhibition
[3] = Inhibition of the enzyme Alpha-galactosidase from Aspergillus niger was determined at 1 mM concentration of the compound; No inhibition
Oryza sativa = assay: Inhibition of the enzyme alpha-glucosidase (maltase) from rice was determined at 1 mM concentration of the compound; No inhibition
Bos taurus [4] = species: Bos taurus; assay: Inhibition of the enzyme beta-N-acetylglucosaminidase from bovine epididymis B was determined at 1 mM concentration of the compound; No inhibition
[5] = Inhibition of the enzyme Alpha-galactosidase from Escherichia coli was determined at 1 mM concentration of the compound; No inhibition
[6] = molecular target: T1, Beta-galactosidase (Aspergillus niger) (UniProt P29853); assay: Inhibition of the enzyme beta-galactosidase from Aspergillus niger was determined at 1 mM concentration of the compound; No inhibition
T1 sequence (whole entry): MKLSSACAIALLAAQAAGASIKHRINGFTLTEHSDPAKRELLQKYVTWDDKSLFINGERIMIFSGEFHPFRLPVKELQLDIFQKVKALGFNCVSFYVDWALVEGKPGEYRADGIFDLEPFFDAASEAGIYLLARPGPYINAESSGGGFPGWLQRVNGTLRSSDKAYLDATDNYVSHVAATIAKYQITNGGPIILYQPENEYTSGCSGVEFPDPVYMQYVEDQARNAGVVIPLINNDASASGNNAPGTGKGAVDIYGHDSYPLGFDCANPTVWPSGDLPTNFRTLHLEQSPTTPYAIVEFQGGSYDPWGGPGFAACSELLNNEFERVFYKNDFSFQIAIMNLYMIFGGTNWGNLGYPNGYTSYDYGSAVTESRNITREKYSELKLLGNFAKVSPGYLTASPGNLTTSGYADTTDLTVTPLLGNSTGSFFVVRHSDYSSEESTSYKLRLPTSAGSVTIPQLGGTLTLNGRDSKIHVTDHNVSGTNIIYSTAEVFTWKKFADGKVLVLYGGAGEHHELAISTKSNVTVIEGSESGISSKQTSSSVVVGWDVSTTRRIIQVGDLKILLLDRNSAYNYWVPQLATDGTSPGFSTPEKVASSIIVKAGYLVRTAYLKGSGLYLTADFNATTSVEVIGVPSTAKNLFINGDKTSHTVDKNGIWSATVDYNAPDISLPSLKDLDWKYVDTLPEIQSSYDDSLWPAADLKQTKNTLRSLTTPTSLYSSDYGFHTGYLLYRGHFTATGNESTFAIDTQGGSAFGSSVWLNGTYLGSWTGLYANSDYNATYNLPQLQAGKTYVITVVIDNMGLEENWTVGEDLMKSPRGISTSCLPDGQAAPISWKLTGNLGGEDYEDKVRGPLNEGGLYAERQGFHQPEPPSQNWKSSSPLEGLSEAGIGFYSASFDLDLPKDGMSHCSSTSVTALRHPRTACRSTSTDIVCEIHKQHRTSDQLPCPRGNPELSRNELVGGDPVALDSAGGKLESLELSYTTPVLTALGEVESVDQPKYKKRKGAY

Saccharomyces cerevisiae [7] = assay: Inhibition of the enzyme alpha-glucosidase (isomaltase) from baker yeast was determined at 1 mM concentration of the compound; No inhibition
[8] = molecular target: T2, Tissue alpha-L-fucosidase (Homo sapiens) (UniProt P04066); assay: Inhibition of the enzyme alpha-L-fucosidase from bovine epididymis was determined at 1 mM concentration of the compound; No inhibition; conditions: Bos taurus, target entry is the homologue from another species
T2 sequence (whole entry): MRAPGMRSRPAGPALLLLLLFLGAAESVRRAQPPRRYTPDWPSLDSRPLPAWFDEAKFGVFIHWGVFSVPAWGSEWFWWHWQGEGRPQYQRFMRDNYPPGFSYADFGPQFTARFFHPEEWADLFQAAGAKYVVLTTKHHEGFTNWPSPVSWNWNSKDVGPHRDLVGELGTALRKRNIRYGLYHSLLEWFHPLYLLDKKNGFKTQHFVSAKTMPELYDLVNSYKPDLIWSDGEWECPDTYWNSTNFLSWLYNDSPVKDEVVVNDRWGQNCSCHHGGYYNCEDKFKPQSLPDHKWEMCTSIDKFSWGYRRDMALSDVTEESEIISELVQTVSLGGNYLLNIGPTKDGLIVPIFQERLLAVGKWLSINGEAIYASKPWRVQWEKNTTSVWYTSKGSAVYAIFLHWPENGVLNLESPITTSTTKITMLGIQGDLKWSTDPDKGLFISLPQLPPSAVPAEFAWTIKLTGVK

[9] = Inhibition of the enzyme beta-galactosidase from Aspergillus oryzae was determined at 1 mM concentration of the compound; No inhibition
jack = assay: Inhibition of the enzyme beta-N-acetylglucosaminidase from jack beans was determined at 1 mM concentration of the compound; No inhibition
Bos taurus [10] = species: Bos taurus; assay: Inhibition of the enzyme beta-N-acetylglucosaminidase from bovine epididymis A was determined at 1 mM concentration of the compound; No inhibition
[11] = Inhibition of the enzyme amyloglucosidase from Rhizopus mold was determined at 1 mM concentration of the compound; No inhibition
[12] = molecular target: Glucoamylase (Aspergillus niger) (UniProt P69328); assay: Inhibition of the enzyme amyloglucosidase from Aspergillus niger was determined at 1 mM concentration of the compound; No inhibition
Chain of Glucoamylase (Aspergillus niger) (P69328 whole entry): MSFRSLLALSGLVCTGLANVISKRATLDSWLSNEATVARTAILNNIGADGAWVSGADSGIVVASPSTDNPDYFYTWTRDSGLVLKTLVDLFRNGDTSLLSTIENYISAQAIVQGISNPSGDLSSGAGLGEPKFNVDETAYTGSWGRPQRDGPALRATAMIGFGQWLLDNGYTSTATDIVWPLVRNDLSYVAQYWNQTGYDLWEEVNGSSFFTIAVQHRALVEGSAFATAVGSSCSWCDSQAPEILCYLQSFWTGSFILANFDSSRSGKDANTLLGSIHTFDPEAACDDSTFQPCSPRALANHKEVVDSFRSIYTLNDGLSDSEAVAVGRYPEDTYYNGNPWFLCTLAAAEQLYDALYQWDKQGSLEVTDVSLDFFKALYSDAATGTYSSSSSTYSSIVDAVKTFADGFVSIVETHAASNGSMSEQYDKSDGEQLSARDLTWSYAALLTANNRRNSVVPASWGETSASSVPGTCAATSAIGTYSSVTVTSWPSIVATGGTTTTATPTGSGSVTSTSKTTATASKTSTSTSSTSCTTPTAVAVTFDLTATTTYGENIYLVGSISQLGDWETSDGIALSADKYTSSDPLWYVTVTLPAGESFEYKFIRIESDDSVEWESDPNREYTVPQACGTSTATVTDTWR

[13] = molecular target: T3, Beta-galactosidase (Bos taurus) (UniProt Q58D55); assay: Inhibition of the enzyme beta-galactosidase from bovine liver was determined at 1 mM concentration of the compound; No inhibition
T3 sequence (whole entry): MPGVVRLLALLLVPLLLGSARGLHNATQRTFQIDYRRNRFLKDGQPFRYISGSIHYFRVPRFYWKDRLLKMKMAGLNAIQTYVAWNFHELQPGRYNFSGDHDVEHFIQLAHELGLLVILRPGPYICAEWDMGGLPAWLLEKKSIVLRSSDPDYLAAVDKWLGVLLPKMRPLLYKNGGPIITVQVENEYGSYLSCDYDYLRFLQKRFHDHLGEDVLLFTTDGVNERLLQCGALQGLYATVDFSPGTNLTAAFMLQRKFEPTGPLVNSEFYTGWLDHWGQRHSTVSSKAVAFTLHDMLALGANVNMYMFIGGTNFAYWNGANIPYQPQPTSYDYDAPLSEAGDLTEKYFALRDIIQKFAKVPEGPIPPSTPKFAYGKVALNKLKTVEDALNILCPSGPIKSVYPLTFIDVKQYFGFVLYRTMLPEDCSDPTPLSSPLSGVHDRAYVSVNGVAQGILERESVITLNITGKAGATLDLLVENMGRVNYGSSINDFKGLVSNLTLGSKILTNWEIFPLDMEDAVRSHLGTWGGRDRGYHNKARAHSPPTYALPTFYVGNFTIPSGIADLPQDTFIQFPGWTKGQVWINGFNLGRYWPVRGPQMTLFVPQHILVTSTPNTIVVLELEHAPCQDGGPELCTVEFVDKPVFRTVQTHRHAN

[14] = molecular target: Beta-galactosidase (Escherichia coli) (UniProt Q8VNN2); assay: Inhibition of the enzyme beta-galactosidase from Escherichia coli was determined at 1 mM concentration of the compound; No inhibition
Chain of Beta-galactosidase (Escherichia coli) (Q8VNN2 whole entry, looked up): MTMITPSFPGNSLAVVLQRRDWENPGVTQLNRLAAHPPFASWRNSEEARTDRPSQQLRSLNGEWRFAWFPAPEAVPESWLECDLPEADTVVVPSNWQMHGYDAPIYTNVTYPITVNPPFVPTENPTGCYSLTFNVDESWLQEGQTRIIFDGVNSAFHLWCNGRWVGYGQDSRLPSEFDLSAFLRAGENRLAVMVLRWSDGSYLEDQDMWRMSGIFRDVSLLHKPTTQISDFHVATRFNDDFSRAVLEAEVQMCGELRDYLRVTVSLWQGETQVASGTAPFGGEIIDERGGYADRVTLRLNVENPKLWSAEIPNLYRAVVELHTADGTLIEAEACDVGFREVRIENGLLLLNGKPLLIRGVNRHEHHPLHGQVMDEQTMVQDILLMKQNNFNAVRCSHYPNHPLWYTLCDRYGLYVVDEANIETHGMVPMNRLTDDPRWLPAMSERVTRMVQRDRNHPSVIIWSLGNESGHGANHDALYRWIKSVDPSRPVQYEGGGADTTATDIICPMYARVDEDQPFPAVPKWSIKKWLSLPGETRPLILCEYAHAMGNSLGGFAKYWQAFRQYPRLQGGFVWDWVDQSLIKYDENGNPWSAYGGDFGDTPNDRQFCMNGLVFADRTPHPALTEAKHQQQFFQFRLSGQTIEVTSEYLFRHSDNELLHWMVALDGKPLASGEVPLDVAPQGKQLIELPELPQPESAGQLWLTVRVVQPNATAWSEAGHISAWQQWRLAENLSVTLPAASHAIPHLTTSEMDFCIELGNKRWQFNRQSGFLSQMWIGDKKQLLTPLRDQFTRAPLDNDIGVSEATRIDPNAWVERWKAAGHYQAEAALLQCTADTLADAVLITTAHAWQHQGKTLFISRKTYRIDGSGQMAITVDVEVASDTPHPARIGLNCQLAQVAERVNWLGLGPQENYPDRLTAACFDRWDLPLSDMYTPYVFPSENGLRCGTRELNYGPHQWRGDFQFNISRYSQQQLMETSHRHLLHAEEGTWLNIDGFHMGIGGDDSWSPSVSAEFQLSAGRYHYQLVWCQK

[15] = molecular target: T2, Tissue alpha-L-fucosidase (Homo sapiens); assay: Inhibition of the enzyme alpha-L-fucosidase from human placenta was determined at 1 mM concentration of the compound; No inhibition
[16] = Inhibition of the enzyme Alpha-galactosidase from coffee beans was determined at 1 mM concentration of the compound; No inhibition; conditions: Coffea arabica
[17] = Inhibition of the enzyme alpha-mannosidase from almonds was determined at 1 mM concentration of the compound; No inhibition
Saccharomyces cerevisiae [18] = assay: Inhibition of the enzyme alpha-glucosidase (maltase) from yeast was determined at 1 mM concentration of the compound; No inhibition
[19] = Inhibition of the enzyme beta-galactosidase from jack beans was determined at 1 mM concentration of the compound; No inhibition
Prunus dulcis = assay: Inhibition of the enzyme beta-glucosidase from almonds was determined at 1 mM concentration of the compound; No inhibition
[20] = molecular target: T4, Alpha-N-acetylgalactosaminidase (Homo sapiens) (UniProt P17050); assay: Inhibition of the enzyme alpha-N-acetylgalactosaminidase from chicken liver was determined at 1 mM concentration of the compound; No inhibition; conditions: Gallus gallus, target entry is the homologue from another species
T4 sequence (whole entry): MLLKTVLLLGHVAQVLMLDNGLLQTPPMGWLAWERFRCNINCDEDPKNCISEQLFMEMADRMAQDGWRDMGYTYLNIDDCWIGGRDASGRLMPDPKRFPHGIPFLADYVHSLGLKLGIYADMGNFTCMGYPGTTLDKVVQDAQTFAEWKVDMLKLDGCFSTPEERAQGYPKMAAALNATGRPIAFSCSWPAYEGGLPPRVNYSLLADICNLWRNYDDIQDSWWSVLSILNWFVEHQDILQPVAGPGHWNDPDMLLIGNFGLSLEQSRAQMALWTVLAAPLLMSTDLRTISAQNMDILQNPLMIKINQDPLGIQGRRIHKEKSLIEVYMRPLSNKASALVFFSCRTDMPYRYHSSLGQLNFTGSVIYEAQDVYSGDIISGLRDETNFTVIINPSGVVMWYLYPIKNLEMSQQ

[21] = Inhibition of the enzyme alpha-mannosidase from almonds was determined at 1 mM concentration of the compound; Moderate inhibition

Row | SMILES | inhibition (Aspergillus niger) | inhibition [1] | inhibition [2] | inhibition [3] | inhibition (Oryza sativa) | inhibition (Bos taurus [4]) | inhibition [5] | inhibition [6] | inhibition (Saccharomyces cerevisiae [7]) | inhibition [8] | inhibition [9] | inhibition (jack) | inhibition (Bos taurus [10]) | inhibition [11] | inhibition [12] | inhibition [13] | inhibition [14] | inhibition [15] | inhibition [16] | inhibition (Saccharomyces cerevisiae [18]) | also measured
1 | OCC1O[C@H](O)C(O)[C@@H]([C@H](O)C2NCC(O)C2O)C1O (stereo partly drawn) | inactive | inactive | inactive | inactive | inactive | inactive | inactive | inactive | inactive | inactive | inactive | inactive | inactive | inactive | inactive | inactive | inactive | inactive | inactive | inactive | inhibition [17]: inactive; inhibition [19]: inactive; inhibition (Prunus dulcis): inactive; inhibition [20]: inactive
2 | OCC1O[C@H](O)[C@H](O)[C@@H]([C@H](O)C2NCC(O)C2O)C1O (stereo partly drawn) | inactive | inactive | inactive | inactive | inactive | inactive | inactive | inactive | inactive | inactive | inactive | inactive | inactive | inactive | inactive | inactive | inactive | inactive | inactive | inactive | inhibition [21]: 27%; inhibition [19]: inactive; inhibition (Prunus dulcis): inactive; inhibition [20]: inactive
